Legend:
Type in all cases: cell-based
HepG2 cells [1] = test: Rescue of cell viability in the presence of a mitochondrial inhibitor (rotenone 1 μM); details: Homo sapiens, HepG2
Protocol: (§1) Cytoprotection of HepG2 cells by naphthoquinones was quantified in the presence of the mitochondrial toxin, rotenone. Briefly, HepG2 cells were seeded in 96-well plates at 5000 cells/well in DMEM with 0.3 g/l glucose, 10% FBS and Penicillin-Streptomycin-Glutamine. After overnight incubation under standard conditions, cells were treated with the test compounds (10 μM) for 2 days before cells were challenged with 1 μM rotenone in the presence of 10 μM test compounds in Hank's balanced salt solution (HBSS) for 6 hours. This was followed by post-incubation for an additional 18 hours with only 10 μM test compounds in HBSS. For measurement of cell viability, cells were washed with 100 μL PBS twice and then lysed using 40 μL lysis solution (4 mM EDTA, 0.2% Triton X-100) for 5 min at room temperature (RT) on an orbital shaker at 200 rpm. Then 10 μL of the lysate was mixed with 90 μL of enzyme-substrate mixture (as described above) in a white 96 well plate and luminescence was measured immediately using a plate-reader (Fluoroscan Ascent, Thermo Scientific). The data is expressed as % viability compared to the untreated (no-rotenone) control.
The extent of protection of cellular viability against a rotenone challenge of representative compounds of Formula (I) is shown below in Table 5. Vitamin K, Menadione and Idebenone were used as comparative controls. DMSO was used as a control.

HepG2 cells [2] = test: Cell viability in the presence of a mitochondrial inhibitor (rotenone 10 μM); details: Homo sapiens, read-out: CELL VIABILITY [%]
Protocol: as §1
The cytoprotective effects of representative compounds of Formula (I) were further examined in vitro in response to rotenone toxicity at (10 μM). […] Cells were treated with the representative compounds of Formula (I) compounds (10 μM) for 2 days before cells were challenged with 10 μM rotenone.
Vitamin K, Menadione and Idebenone were used as comparative controls.

HepG2 cells [3] = test: Extracellular lactate levels, enzyme-linked colorimetric assay; details: HepG2 culture medium; for Extracellular lactate [% control]: 25 mM glucose, supernatant after 48 h, standardized to protein
Protocol: Lactate concentrations in culture medium were determined by an enzyme-linked colorimetric assay. Briefly, 150,000 HepG2 cells were seeded in normal growth media (DMEM, 10% FCS, Pen/Strep) in each well of a 6-well plate (Life Science, USA) and incubated for 24 h. The media was replaced with growth media containing (25 mM glucose,) with and without test compounds. Three untreated wells containing only cells were considered the experimental baseline control and all compounds were tested in three different wells simultaneously. Supernatants were collected after 48 h and transferred into 96-well format. After the addition of 90 μl of reaction buffer (10 mM KH2PO4 pH 7.8, 1 mg/ml BSA, 0.5 mM PMS, 2 mM EDTA, 0.6 mM DCPIP, 0.8 mM NAD+, 5 U/ml glutamate-pyruvate-transaminase, 1.5 mM glutamate, 12.5 U/ml lactate dehydrogenase) the plate was incubated at 30° C. inside a multimode plate reader (Multiscan Go, Thermo Scientific) and absorbance was measured at 600 nm over a period of 100 minutes. A standard curve was generated using media spiked with known lactate concentrations. Finally, protein levels were quantified and the lactate concentration of each well was standardized to its protein content and was then expressed as % of control.
The extent of lactate reduction in the cell culture media by the test compounds of the subject invention and the Comparative Compounds vitamin K, menadione and idebenone is shown below in Table 6.

HepG2 cells [4] = test: Acute ATP rescue assay (impaired mitochondrial function, rotenone); details: Homo sapiens, 1 h; HepG2; 1 μM quinones with rotenone 10 μM, 60 minutes, glucose-free DMEM; % ATP compared to untreated (no-rotenone) control
Protocol: HepG2 cells were seeded at a density of 5000 cells per well in a 96-well plate and incubated for 24 hours in DMEM with 0.3 g/l glucose, 10% FBS and Penicillin-Streptomycin-Glutamine. Cells were treated with 1 μM quinones in presence or absence of rotenone (10 μM), for 60 minutes in glucose-free DMEM ATP levels were quantified using luminescence from the ATP-dependent enzymatic oxidation of luciferin by luciferase. Cells were lysed in a volume of 40 μl (4 mM EDTA, 0.2% Triton X-100) for five minutes at room temperature (RT) on an orbital shaker at 200 rpm. […] Luminescence was quantified immediately using a multimode plate reader (Fluoroscan Ascent, Thermo Scientific). ATP levels were standardized to protein levels using a commercial BCA assay (Protein DC; BioRad) and changes were calculated as percentage relative to levels of DMSO-treated control cells. Data is expressed as % ATP compared to the untreated (no-rotenone) control.
Vitamin K, menadione and idebenone were used as comparative controls. DMSO was used as a control.

Row | SMILES | viability at 10 µM (HepG2 cells [1]) | viability at 10 µM (HepG2 cells [2]; HepG2, 48 h) | activity at 1 µM (HepG2 cells [4]) | also measured
1 | CC1=C(CCCCCC(=O)NCCc2ccc(O)cc2)C(=O)c2ccccc2C1=O [UTA #89] | 85.2% | 85.2% | – | –
2 | COC(=O)C(Cc1ccccc1)NC(=O)CCCC1=C(C)C(=O)c2ccccc2C1=O (stereo in doubt) [UTA #35, (R)-methyl-2(4-(3-methyl-1,4-naphthoquinone-2-yl)butamido)-3-phenylpropanoate] | – | 76.2% | – | –
3 | CC1=C(CCCCC(=O)NCCc2ccc(O)cc2)C(=O)c2ccccc2C1=O [UTA #88] | 91.8% | 91.8% | – | –
4 | CC1=C(CCC(=O)N[C@@H](Cc2ccccc2)C(=O)O)C(=O)c2ccccc2C1=O [UTA #66] | – | 66.9% | – | Extracellular lactate [% control] (HepG2 cells [3]): 66 % control
5 | CCCCCCCC1=C(C)C(=O)c2ccccc2C1=O [UTA #21] | – | – | – | Extracellular lactate [% control] (HepG2 cells [3]): 75.6 % control
6 | COC1=C(OC)C(=O)C(CCCCCCCCCCO)=C(C)C1=O [Idebenone, idebenone, reference compound] | – | – | 81% | viability at 10 µM (HepG2 cells [1]; 10 μM test compound 2 days, 1 μM rotenone challenge 6 hours, 18 hours post-incubation, % of untreated (no-rotenone) control, read-out: Viability [%]): 66.2%; viability at 10 µM (HepG2 cells [2]; 48 h, HepG2, compounds 10 uM for 2 days, then 10 μM rotenone challenge): 66.2%; Extracellular lactate [% control] (HepG2 cells [3]): 111.9 % control; Effect on lactate production (in words) (HepG2 cells [3]; comment on the lactate table): increase lactate concentrations
7 | CC1=C(CCC(=O)N[C@@H](Cc2ccccc2)C(=O)OC(C)(C)C)C(=O)c2ccccc2C1=O [UTA #65] | – | 60.1% | 91.1% | –
8 | CC1=C(CCCC(=O)N[C@H](Cc2ccccc2)C(=O)O)C(=O)c2ccccc2C1=O [UTA #94] | – | 71.7% | – | –
9 | CC1=C(CCCCCC(=O)N[C@@H](Cc2ccccc2)C(=O)OC(C)(C)C)C(=O)c2ccccc2C1=O [UTA #75] | – | 61.4% | 95.4% | –
10 | CC1=C(CCCC(=O)NCC(=O)OC(C)(C)C)C(=O)c2ccccc2C1=O [UTA #47] | – | 74.4% | – | –
11 | O=C(CCCC1=CC(=O)c2ccccc2C1=O)N[C@H](CO)Cc1ccccc1 [UTA #115] | 80.8% | 80.8% | – | –
12 | CC1=C(CCCC(=O)N2CCC[C@H]2CO)C(=O)c2ccccc2C1=O [UTA #61, (S)-2-(4-(2-(hydroxymethyl)pyrrolidin-1-yl)-4-oxobutyl)-3-methyl-1,4-naphthoquinone] | 101% | 101% | – | –
13 | CC1=C(CCCC(=O)N2CCC[C@H]2C(=O)OC(C)(C)C)C(=O)c2ccccc2C1=O [UTA #42, (S)-tert-butyl-1-(4-(3-methyl-1,4-naphthoquinone-2-yl)butanoyl)pyrrolidine-2-carboxylate] | – | 64.7% | – | –
14 | CC1=C(CCC(C)O)C(=O)c2ccccc2C1=O (stereo not shown) [UTA #24] | – | 72.8% | – | –
15 | COC(=O)[C@@H]1C[C@@H](O)CN1C(=O)CCCC1=C(C)C(=O)c2ccccc2C1=O [UTA #93] | – | 74.4% | – | –
16 | CCCCC1=C(C)C(=O)c2ccccc2C1=O [UTA #19] | – | – | – | Extracellular lactate [% control] (HepG2 cells [3]): 65.3 % control
17 | O=C(CCCC1=CC(=O)c2ccccc2C1=O)NCCc1ccc(O)cc1 [UTA #113] | – | 73.4% | – | –
18 | CC1=C(CCCCCC(=O)N[C@H](CO)Cc2ccccc2)C(=O)c2ccccc2C1=O [UTA #84] | – | 74.4% | 90.4% | –
19 | CC1=C(CCCC(=O)N[C@@H](Cc2ccc(O)cc2)C(=O)OC(C)(C)C)C(=O)c2ccccc2C1=O [UTA #55] | – | 78.6% | 94.8% | –

Row | SMILES | viability at 10 µM (HepG2 cells [1]) | viability at 10 µM (HepG2 cells [2]; HepG2, 48 h) | activity at 1 µM (HepG2 cells [4]) | also measured
20 | COC(=O)[C@H](NC(=O)CCCC1=C(C)C(=O)c2ccccc2C1=O)c1ccccc1 [UTA #97] | 84.8% | 84.8% | – | –
21 | CC1=C(CCCCCC(=O)O)C(=O)c2ccccc2C1=O [UTA #70] | – | 66.8% | 91.8% | Extracellular lactate [% control] (HepG2 cells [3]): 73.3 % control
22 | CC1=C(CCCCC(=O)O)C(=O)c2ccccc2C1=O [UTA #67, 25-(3-methyl-1,4-naphthoquinone-2-yl)pentanoic acid] | – | 74.9% | 97.1% | Extracellular lactate [% control] (HepG2 cells [3]): 67.6 % control
23 | CC1=C(CCCC(=O)NCCc2c[nH]c3ccccc23)C(=O)c2ccccc2C1=O [UTA #73, N-(2-(1H-indol-3-yl)ethyl)-4-(3-methyl-1,4-naphthoquinone-2-yl)butanamide] | 86.2% | 86.2% | 96.1% | –
24 | CCCCNC(=O)CCCC1=C(C)C(=O)c2ccccc2C1=O [UTA #91] | 82% | 82% | – | –
25 | CC1=C(CCCC(=O)N[C@H](CO)Cc2ccccc2)C(=O)c2ccccc2C1=O [UTA #62, (S)—N-(1-hydroxy-3-phenylpropan-2-yl)-4-(3-methyl-1,4-naphthyoquinone-2-yl)butanamide] | 93.1% | 93.1% | 91.2% | –
26 | CC1=C(CCCC(=O)N2CCC[C@H]2C(=O)O)C(=O)c2ccccc2C1=O [UTA #43, (S)-1-(4-(3-methyl-1,4-naphthoquinone-2-yl)butanoyl)pyrrolidine-2-carboxylic Acid] | 92.7% | 92.7% | – | –
27 | CC1=C(CCCCC(=O)N[C@@H](Cc2ccccc2)C(=O)O)C(=O)c2ccccc2C1=O [UTA #72] | 90.7% | 90.7% | 84.8% | –
28 | O=C(CCCC1=CC(=O)c2ccccc2C1=O)N[C@@H](Cc1ccccc1)C(=O)O [UTA #117] | 80.3% | 80.3% | – | –
29 | COc1ccc(CC2=C(C)C(=O)c3ccccc3C2=O)cc1OC [UTA #20] | – | – | – | Extracellular lactate [% control] (HepG2 cells [3]): 78.6 % control
30 | CC1=C(CCC2CCCC2)C(=O)c2ccccc2C1=O [UTA #22] | – | – | – | Extracellular lactate [% control] (HepG2 cells [3]): 73 % control
31 | COC(=O)[C@@H](NC(=O)CCCC1=C(C)C(=O)c2ccccc2C1=O)c1ccccc1 [UTA #95] | 86.1% | 86.1% | – | –
32 | CC1=C(CCCCC(=O)N[C@@H](Cc2ccccc2)C(=O)OC(C)(C)C)C(=O)c2ccccc2C1=O [UTA #71] | – | 70.5% | 92.2% | –
33 | CC1=C(CCCC(=O)NCCc2ccc(O)cc2)C(=O)c2ccccc2C1=O [UTA #74, N-(4-hydroxyphenethyl)-4-(3-methyl-1,4-naphthoquinone-2-yl)butanamide] | 91.7% | 91.7% | 101% | –
34 | CC1=C(CCCC(=O)N[C@@H](CC(C)C)C(=O)O)C(=O)c2ccccc2C1=O [UTA #54] | 98.7% | 98.7% | – | Extracellular lactate [% control] (HepG2 cells [3]): 79.1 % control
35 | CC1=C(CCCC(=O)N[C@H](CO)c2ccccc2)C(=O)c2ccccc2C1=O [UTA #81] | 83.8% | 83.8% | – | –
36 | CC1=C(CCCC(=O)N[C@@H](CO)c2ccccc2)C(=O)c2ccccc2C1=O [UTA #80] | 87.6% | 87.6% | – | –
37 | CC1=C(CCCC(=O)N[C@@H](CO)Cc2ccccc2)C(=O)c2ccccc2C1=O [UTA #78] | – | 80% | – | –
38 | CC1=C(CCCCCC(=O)N[C@@H](Cc2ccccc2)C(=O)O)C(=O)c2ccccc2C1=O [UTA #76] | – | 68.1% | – | –

Source: patent US10934253B2, “Therapeutic compounds and methods” (UNIVERSITY OF TASMANIA, priority 2017, dated 2021)
